Data as given in ChEMBL document CHEMBL5325507, “A TNF-α blocking peptide that reduces NF-κB and MAPK activity for attenuating inflammation” (Bioorg Med Chem, 2023).
The source made the active and inactive calls. The rule behind the calls is not given here. Numbered stars: 1 amine (or outer) side, 2 acyl side, 3 side chain; on linkers, the order of the positions; unused ones are H or OH. Bridge positions count the residues as written; N and C are the ends. Square brackets hold non-standard residues; d marks the D form. Peptide text beside a SMILES is read from it. I, II: the chains in the order shown. Actinocin(9to1) = Cc1c2oc3c(C)ccc(C(=O)[*:1])c3nc-2c(C(=O)[*:2])c(N)c1=O; NMeV = CN[C@H](C(=O)O)C(C)C; Sar = CNCC(=O)O

Experiments:
[1] = tested on: L929; assay: Cytotoxicity against TNF-alpha induced mouse L929 cells assessed as increase in cell survival pretreated for 12 hrs followed by TNF-alpha induction and measured after 20 hrs by MTT assay; type: toxicity, cell-based; settings: l929, 32 h
[2] = biological target: T1, Nuclear factor NF-kappa-B complex (Homo sapiens) (UniProt Q00653+P19838+Q04206); assay: Inhibition of TNF-alpha induced NF-kappaB activation in HEK293-A cells incubated for 15 mins by Western blot analysis; type: cell-based; settings: dose 15-120 µM
T1 sequence (P19838 whole entry, looked up): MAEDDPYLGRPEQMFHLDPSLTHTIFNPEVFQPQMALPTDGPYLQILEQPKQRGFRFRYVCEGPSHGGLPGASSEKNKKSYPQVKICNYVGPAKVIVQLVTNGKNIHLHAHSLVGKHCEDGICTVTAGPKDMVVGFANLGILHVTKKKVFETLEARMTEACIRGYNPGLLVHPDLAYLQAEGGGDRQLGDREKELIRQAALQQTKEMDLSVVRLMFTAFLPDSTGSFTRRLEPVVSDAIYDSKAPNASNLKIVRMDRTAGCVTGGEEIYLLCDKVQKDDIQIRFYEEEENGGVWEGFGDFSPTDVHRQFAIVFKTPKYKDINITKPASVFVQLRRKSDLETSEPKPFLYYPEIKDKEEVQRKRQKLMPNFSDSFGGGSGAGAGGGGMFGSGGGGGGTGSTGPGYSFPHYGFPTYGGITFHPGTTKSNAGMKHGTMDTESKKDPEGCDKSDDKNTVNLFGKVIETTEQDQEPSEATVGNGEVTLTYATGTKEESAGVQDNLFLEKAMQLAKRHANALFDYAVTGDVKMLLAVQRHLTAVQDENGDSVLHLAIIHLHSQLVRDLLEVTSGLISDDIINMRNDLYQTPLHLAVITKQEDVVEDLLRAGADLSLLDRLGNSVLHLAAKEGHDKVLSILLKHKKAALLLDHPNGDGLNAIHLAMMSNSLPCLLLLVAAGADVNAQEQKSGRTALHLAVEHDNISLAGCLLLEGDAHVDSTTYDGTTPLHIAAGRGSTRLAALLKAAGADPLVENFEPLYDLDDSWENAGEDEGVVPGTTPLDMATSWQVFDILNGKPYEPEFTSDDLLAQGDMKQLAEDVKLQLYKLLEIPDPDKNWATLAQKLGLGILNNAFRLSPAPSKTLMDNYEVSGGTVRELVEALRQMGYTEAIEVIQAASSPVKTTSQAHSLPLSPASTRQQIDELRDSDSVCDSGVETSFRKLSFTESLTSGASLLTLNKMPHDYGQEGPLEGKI
T1 sequence (Q00653 whole entry, looked up): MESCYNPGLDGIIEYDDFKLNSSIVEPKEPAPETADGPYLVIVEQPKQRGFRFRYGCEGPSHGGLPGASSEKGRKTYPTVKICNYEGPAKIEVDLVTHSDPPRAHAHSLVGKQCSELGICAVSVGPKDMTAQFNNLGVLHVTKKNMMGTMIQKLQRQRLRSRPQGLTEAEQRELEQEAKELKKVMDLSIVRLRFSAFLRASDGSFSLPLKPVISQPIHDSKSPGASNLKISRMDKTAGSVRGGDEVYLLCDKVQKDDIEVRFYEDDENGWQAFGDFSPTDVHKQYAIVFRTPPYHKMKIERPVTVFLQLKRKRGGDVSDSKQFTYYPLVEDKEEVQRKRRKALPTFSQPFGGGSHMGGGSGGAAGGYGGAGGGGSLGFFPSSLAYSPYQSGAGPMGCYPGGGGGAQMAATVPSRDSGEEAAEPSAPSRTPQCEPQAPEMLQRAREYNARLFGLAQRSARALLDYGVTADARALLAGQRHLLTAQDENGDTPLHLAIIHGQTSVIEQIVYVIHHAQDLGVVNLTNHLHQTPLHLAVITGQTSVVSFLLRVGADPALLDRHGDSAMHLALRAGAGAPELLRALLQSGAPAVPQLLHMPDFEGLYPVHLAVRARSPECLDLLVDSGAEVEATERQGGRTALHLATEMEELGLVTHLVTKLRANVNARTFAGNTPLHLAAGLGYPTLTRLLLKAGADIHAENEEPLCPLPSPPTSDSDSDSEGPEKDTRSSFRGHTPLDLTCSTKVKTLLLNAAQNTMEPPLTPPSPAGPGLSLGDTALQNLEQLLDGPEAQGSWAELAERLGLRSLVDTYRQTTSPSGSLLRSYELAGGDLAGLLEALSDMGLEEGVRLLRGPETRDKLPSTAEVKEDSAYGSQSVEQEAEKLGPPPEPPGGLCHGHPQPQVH
T1 sequence (Q04206 whole entry, looked up): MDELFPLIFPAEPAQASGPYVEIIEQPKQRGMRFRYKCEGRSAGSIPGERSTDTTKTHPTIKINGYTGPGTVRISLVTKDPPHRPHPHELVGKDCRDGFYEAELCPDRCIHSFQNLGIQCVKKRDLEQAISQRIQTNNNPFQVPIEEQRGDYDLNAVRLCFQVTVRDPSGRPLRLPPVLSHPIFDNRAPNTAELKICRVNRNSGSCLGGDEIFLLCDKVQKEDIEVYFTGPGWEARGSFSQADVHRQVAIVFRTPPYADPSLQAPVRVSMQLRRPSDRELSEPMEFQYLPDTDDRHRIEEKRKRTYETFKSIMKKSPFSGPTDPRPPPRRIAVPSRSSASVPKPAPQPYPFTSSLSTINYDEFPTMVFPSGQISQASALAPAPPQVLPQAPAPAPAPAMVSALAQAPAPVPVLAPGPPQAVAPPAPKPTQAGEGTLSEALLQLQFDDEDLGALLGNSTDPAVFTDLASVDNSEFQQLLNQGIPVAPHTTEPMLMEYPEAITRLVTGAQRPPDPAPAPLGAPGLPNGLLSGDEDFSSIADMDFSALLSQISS

[3] = biological target: T2, Tumor necrosis factor receptor superfamily member 1A (Homo sapiens, UniProt P19438); assay: Competitive Inhibition of TNF-alpha binding to human recombinant TNFR1 incubated for 1 hr by ELISA analysis
T2 sequence (P19438 whole entry): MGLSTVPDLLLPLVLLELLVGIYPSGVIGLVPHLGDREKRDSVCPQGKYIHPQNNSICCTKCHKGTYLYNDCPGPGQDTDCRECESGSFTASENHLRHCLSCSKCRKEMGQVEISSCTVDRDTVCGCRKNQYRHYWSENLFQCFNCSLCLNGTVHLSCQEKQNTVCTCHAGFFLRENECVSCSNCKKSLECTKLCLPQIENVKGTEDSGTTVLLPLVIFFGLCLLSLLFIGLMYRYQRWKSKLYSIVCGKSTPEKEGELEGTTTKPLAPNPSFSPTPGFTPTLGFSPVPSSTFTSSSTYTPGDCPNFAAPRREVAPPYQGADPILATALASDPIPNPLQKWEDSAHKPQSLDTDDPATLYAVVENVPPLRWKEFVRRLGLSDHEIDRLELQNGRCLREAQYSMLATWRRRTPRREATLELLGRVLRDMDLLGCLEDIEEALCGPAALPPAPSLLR

[4] = tested on: HEK293-A; assay: Inhibition of TNF-alpha induced MAPK activation in HEK293-A cells assessed as decrease in phosphorylated JNK expression at 15 to 120 uM incubated for 15 mins by Western blot analysis; type: cell-based; settings: Homo sapiens, dose 15-120 µM
[5] = biological target: T3, Tumor necrosis factor receptor superfamily member 1B (Homo sapiens, UniProt P20333); assay: Competitive Inhibition of TNF-alpha binding to human recombinant TNFR2 incubated for 1 hr by ELISA analysis
T3 sequence (P20333 whole entry): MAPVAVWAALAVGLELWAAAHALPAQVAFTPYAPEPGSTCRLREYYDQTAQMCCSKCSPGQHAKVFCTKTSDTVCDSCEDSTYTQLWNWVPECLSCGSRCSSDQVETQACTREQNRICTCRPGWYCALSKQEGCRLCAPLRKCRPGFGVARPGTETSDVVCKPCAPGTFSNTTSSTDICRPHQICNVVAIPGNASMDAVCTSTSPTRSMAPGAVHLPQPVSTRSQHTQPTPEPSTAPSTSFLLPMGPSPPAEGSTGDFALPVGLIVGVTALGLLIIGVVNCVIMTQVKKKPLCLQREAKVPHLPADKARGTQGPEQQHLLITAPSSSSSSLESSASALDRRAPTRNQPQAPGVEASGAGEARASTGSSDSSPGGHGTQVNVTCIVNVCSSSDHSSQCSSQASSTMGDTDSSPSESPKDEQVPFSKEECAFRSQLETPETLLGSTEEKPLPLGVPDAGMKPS

[6] = tested on: L929; assay: Cytotoxicity against TNF-alpha induced mouse L929 cells assessed as increase in cell survival pretreated for 12 hrs followed by TNF-alpha induction and measured after 18 to 20 hrs by MTT assay; type: toxicity, cell-based
[7] = biological target: Transcription factor p65 (Homo sapiens) (UniProt Q04206); assay: Inhibition of TNF-alpha induced NF-kappaB p65 nuclear translocation in human HaCaT cells at 120 uM incubated for 10 mins DAPI staining based fluorescence microscopic analysis; type: cell-based
Sequence of Transcription factor p65 (Homo sapiens) (Q04206 whole entry): as the sequence (Q04206 whole entry, looked up) above

[8] = tested on: HT-29; assay: Antiinflammatory activity in human HT-29 cells assessed as downregulation of TNF-alpha-induced IL-1beta mRNA expression incubated for 6 hrs by RT-PCR analysis; type: functional, cell-based; settings: dose 15-20 µM
[9] = tested on: HEK293-A; assay: Inhibition of TNF-alpha induced MAPK activation in HEK293-A cells assessed as decrease in phosphorylated ERK expression at 15 to 120 uM incubated for 15 mins by Western blot analysis; type: cell-based; settings: Homo sapiens, dose 15-120 µM
[10] = tested on: HEK293-A; assay: Inhibition of TNF-alpha induced MAPK activation in HEK293-A cells at 15 to 120 uM by Western blot analysis; type: cell-based; settings: Homo sapiens, dose 15-120 µM, time 15.0 min, TDE = time-dependent effect
[11] = tested on: HT-29; assay: Antiinflammatory activity in human HT-29 cells assessed as downregulation of TNF-alpha-induced IFN-gamma mRNA expression incubated for 6 hrs by RT-PCR analysis; type: functional, cell-based; settings: dose 15-20 µM
[12] = tested on: HEK293-A; assay: Inhibition of TNF-alpha induced MAPK activation in HEK293-A cells assessed as decrease in phosphorylated p38 expression at 15 to 120 uM incubated for 15 mins by Western blot analysis; type: cell-based; settings: Homo sapiens, dose 15-120 µM
[13] = tested on: HT-29; assay: Antiinflammatory activity in human HT-29 cells assessed as downregulation of TNF-alpha-induced ICAM mRNA expression incubated for 6 hrs by RT-PCR analysis; type: functional, cell-based; settings: dose 15-20 µM
[14] = tested on: HT-29; assay: Antiinflammatory activity in human HT-29 cells assessed as downregulation of TNF-alpha-induced IL-8 mRNA expression incubated for 6 hrs by RT-PCR analysis; type: functional, cell-based; settings: dose 15-20 µM
[15] = biological target: T1, Nuclear factor NF-kappa-B complex (Homo sapiens); assay: Inhibition of TNF-alpha induced NF-kappaB activation in HEK293-A cells assessed as decrease in phosphorylated IkappaB level at 15 to 120 uM incubated for 15 mins by Western blot analysis; type: cell-based; settings: dose 15-120 µM
[16] = biological target: T1, Nuclear factor NF-kappa-B complex (Homo sapiens); assay: Inhibition of TNF-alpha induced NF-kappaB activation in HEK293-A cells at 15 to 120 uM by Western blot analysis; type: cell-based; settings: dose 15-120 µM, time 15.0 min, TDE = time-dependent effect
[17] = tested on: HEK293-A; assay: Inhibition of TNF-alpha induced MAPK activation in HEK293-A cells incubated for 15 mins by Western blot analysis; type: cell-based; settings: Homo sapiens, dose 15-120 µM
[18] = biological target: Transcription factor p65 (Homo sapiens) (UniProt Q04206); assay: Inhibition of TNF-alpha induced NF-kappaB p65 nuclear translocation in human HaCaT cells at 30 to 120 uM incubated for 10 mins DAPI staining based fluorescence microscopic analysis; type: cell-based; settings: dose 30-120 µM

inhibition [2] | inhibition [7] | inhibition [15] | inhibition [16] | inhibition [18] | Compound | Activity [1] [%] | EC50 [3] [µM] | inhibition [4] | EC50 [5] [µM] | IC50 [6] [µM] | Activity [8] | inhibition [9] | inhibition [10] | Activity [11] | inhibition [12] | Activity [13] | Activity [14] | inhibition [17]
– | – | – | – | – | Cc1c2oc3c(C)ccc(C(=O)N[C@@H]4C(=O)N[C@H](C(C)C)C(=O)N5CCC[C@H]5C(=O)N(C)CC(=O)N(C)[C@@H](C(C)C)C(=O)O[C@@H]4C)c3nc-2c(C(=O)N[C@@H]2C(=O)N[C@H](C(C)C)C(=O)N3CCC[C@H]3C(=O)N(C)CC(=O)N(C)[C@@H](C(C)C)C(=O)O[C@@H]2C)c(N)c1=O [DACTINOMYCIN] (I: T[dV]P[Sar][NMeV] / II: T[dV]P[Sar][NMeV]; ester I:1-I:C, II:1-II:C; linker I:N-II:N via Actinocin(9to1)) | 70 | – | – | – | – | – | – | – | – | – | – | – | –
Dose-Dependent Effect | Active | Active | Tde | Active | H-DEFHLELHLYQSW-OH | – | 7.25 | Active | 17 | 15.4 | Dose-Dependent Effect | Active | Tde | Dose-Dependent Effect | Active | Dose-Dependent Effect | Dose-Dependent Effect | Dose-Dependent Effect
